The test addresses human CB1 receptor (Homo sapiens, UniProt P21554). The experiment in a line: cell-based.

pEC50: −log10 of the molar value.

human CB1 receptor, sequence (P21554 whole entry): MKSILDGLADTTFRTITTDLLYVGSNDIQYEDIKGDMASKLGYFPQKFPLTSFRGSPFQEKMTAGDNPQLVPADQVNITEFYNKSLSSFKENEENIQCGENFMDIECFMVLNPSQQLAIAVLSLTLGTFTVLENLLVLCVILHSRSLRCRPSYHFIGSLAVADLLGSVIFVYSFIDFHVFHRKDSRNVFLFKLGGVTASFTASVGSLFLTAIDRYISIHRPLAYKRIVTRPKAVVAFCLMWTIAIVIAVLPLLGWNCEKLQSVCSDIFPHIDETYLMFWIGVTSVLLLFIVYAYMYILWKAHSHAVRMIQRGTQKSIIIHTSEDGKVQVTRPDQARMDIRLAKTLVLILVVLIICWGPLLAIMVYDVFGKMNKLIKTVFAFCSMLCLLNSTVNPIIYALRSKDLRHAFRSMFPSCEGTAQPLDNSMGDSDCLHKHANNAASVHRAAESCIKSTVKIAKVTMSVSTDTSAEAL

For orientation: pEC50 means the negative decadic logarithm of the EC50, by convention in mol/L. Read a high pEC50 as a low EC50. As to `O=C(c1cnc2c(c1)N(S(=O)(=O)c1ccc(C(F)(F)F)cc1)CCO2)N1CCCCC1CO` (racemic) [Example 72, +/− (2-(hydroxymethyl)piperidin-1-yl)(1-(4-(trifluoro-methyl)phenylsulfonyl)-2,3-dihydro-1H-pyrido [2,3-b][1,4]oxazin-7-yl) methanone], the negative-log EC50 (pEC50) is less than 4.52. With `COC(=O)CC1CCCCN1C(=O)c1cnc2c(c1)N(S(=O)(=O)c1ccc(C(F)(F)F)cc1)CCO2` (racemic) [Example 73, +/− methyl 2-(1-(1-(4-(trifluoromethyl)phenylsulf-onyl)-2,3-dihydro-1H-pyrido[2,3-b][1,4]oxazine-7-carbonyl)piperidin-2-yl)acetate] the figure was less than 4.52; with `O=C(c1cnc2c(c1)N(S(=O)(=O)c1ccc(C(F)(F)F)cc1)CCO2)N1CCCCC1CN1CCCC1` (racemic) [Example 75, +/− (2-(pyrrolidin-1-ylmethyl)piperidin-1-yl)(1-(4-(trifluoromethyl)-phenylsulfonyl)-2,3-dihydro-1H-pyrido[2,3-b][1,4]oxazin-7-yl)-methanone], less than 4.52; with `O=C(c1cnc2c(c1)N(S(=O)(=O)c1ccc(C(F)(F)F)cc1)CCO2)N1CCCCC1CN1CCOCC1` (racemic) [Example 76, +/− (2-(morpholino-methyl)piperidin-1-yl)(1-(4-(trifluoromethyl)-phenylsulfonyl)-2,3-dihydro-1H-pyrido[2,3-b][1,4]oxazin-7-yl)methanone], less than 4.52. The compound `O=C(c1cnc2c(c1)N(S(=O)(=O)c1ccccc1)CCO2)N1CCCCC1` [Example 1, (1-(phenylsulfonyl)-2,3-dihydro-1H-pyrido[2,3-b][1,4]oxazin-7-yl)(piperidin-1-yl)methanone] gave a pEC50 of less than 4.52.

Turning to `O=C(NCC1CCOCC1)c1cnc2c(c1)N(S(=O)(=O)c1ccc(F)cc1)CCO2` [Example 9, 1-(4-fluorophenyl-sulfonyl)-N-((tetrahydro-2H-pyran-4-yl)methyl)-2,3-dihydro-1H-pyrido[2,3-b][1,4]oxazine-7-carboxamide], the pEC50 was less than 4.52. The same measure for `CCN(CC)C(=O)c1cnc2c(c1)N(S(=O)(=O)c1ccc(F)cc1)CCO2` [Example 13, N,N-diethyl-1-(4-fluorophenylsulfonyl)2,3-dihydro-1H-pyrido[2,3-b][1,4]oxazine-7-carboxamide]: less than 4.52; for `O=C(NCC1CCCO1)c1cnc2c(c1)N(S(=O)(=O)c1ccc(F)cc1)CCO2` (centres unmarked) [Example 14, 1-(4-fluorophenyl-sulfonyl)-N-((tetra-hydrofuran-2-yl)methyl)-2,3-dihydro-1H-pyrido [2,3-b][1,4]oxazine-7-carboxamide]: less than 4.52; for `CC(C)(C)NC(=O)c1cnc2c(c1)N(S(=O)(=O)c1cccnc1)CCO2` [Example 16, N-tert-butyl-1-(pyridin-3-ylsulfonyl)-2,3-dihydro-1H-pyrido[2,3-b][1,4]oxazine-7-carboxamide]: less than 4.52. With `O=C(NC1CCCC1)c1cnc2c(c1)N(S(=O)(=O)c1cccnc1)CCO2` [Example 17, N-cyclopentyl-1-(pyridin-3-ylsulfonyl)-2,3-dihydro-1H-pyrido[2,3-b][1,4]oxazine-7-carboxamide] the figure was less than 4.52; with `CC(C)CS(=O)(=O)N1CCOc2ncc(C(=O)NC(C)(C)C)cc21` [Example 28, N-tert-butyl-1-(isobutylsulfonyl)-2,3-dihydro-1H-pyrido[2,3-b][1,4]oxazine-7-carboxamide], less than 4.52; with `CC(C)CS(=O)(=O)N1CCOc2ncc(C(=O)NC3CCCC3)cc21` [Example 29, N-cyclopentyl-1-(isobutylsulfonyl)-2,3-dihydro-1H-pyrido[2,3-b][1,4]oxazine-7-carboxamide], less than 4.52. The same measure for `CN(Cc1ccccc1)C(=O)c1cnc2c(c1)N(S(=O)(=O)c1ccc(F)cc1)CCO2` [Example 32, N-benzyl-1-(4-fluorophenylsulfonyl)-N-methyl-2,3-dihydro-1H-pyrido[2,3-b][1,4]oxazine-7-carboxamide]: less than 4.52; for `COCCN(C)C(=O)c1cnc2c(c1)N(S(=O)(=O)c1ccc(Cl)cc1)CCO2` [Example 34, 1-(4-chlorophenyl-sulfonyl)-N-(2-methoxy-ethyl)-N-methyl-2,3-dihydro-1H-pyrido[2,3-b][1,4]oxazine-7-carboxamide]: less than 4.52.

Compound `COCCN(C)C(=O)c1cnc2c(c1)N(S(=O)(=O)c1ccc(C(F)(F)F)cc1)CCO2` [Example 35, N-(2-methoxyethyl)-N-methyl-1-(4-(trifluoro-methyl)phenylsulfonyl)-2,3-dihydro-1H-pyrido-[2,3-b][1,4]oxazine-7-carboxamide] showed a negative-log EC50 (pEC50) of less than 4.52.

Compound `CN(Cc1ccccc1)C(=O)c1cnc2c(c1)N(S(=O)(=O)c1ccc(C(F)(F)F)cc1)CCO2` [Example 36, N-benzyl-N-methyl-1-(4-(trifluoromethyl)phenylsulf-onyl)-2,3-dihydro-1H-pyrido[2,3-b][1,4]oxazine-7-carboxamide] gave a negative-log EC50 (pEC50) of less than 4.52.

The compound `CC(C)(CN1CCCC1)NC(=O)c1cnc2c(c1)N(S(=O)(=O)c1ccc(C(F)(F)F)cc1)CCO2` [Example 37, N-(2-methyl-1-(pyrrolidin-1-yl)propan-2-yl)-1-(4-(trifluoromethyl)phenylsulf-onyl)-2,3-dihydro-1H-pyrido[2,3-b][1,4]oxazine-7-carboxamide] showed a negative-log EC50 (pEC50) of less than 4.52.

As to `CC(C)(C)N(CCC#N)C(=O)c1cnc2c(c1)N(S(=O)(=O)c1ccc(C(F)(F)F)cc1)CCO2` [Example 41, N-tert-butyl-N-(2-cyanoethyl)-1-(4-(trifluoromethyl)phenylsulf-onyl)-2,3-dihydro-1H-pyrido[2,3-b][1,4]oxazine-7-carboxamide], the negative-log EC50 (pEC50) is less than 4.52.

`CC(C)(C)N(CCO)C(=O)c1cnc2c(c1)N(S(=O)(=O)c1ccc(C(F)(F)F)cc1)CCO2` [Example 44, N-tert-butyl-N-(2-hydroxyethyl)-1-(4-(trifluoromethyl)phenylsulf-onyl)-2,3-dihydro-1H-pyrido[2,3-b][1,4]oxazine-7-carboxamide] showed a negative logarithm of the EC50 (pEC50) of less than 4.52.

`CC(C)(N)CNC(=O)c1cnc2c(c1)N(S(=O)(=O)c1ccc(C(F)(F)F)cc1)CCO2` [Example 47, N-(2-amino-2-methylpropyl)-1-(4-(trifluoromethyl)phenylsulf-onyl)-2,3-dihydro-1H-pyrido[2,3-b][1,4]oxazine-7-carboxamide]: the negative-log EC50 (pEC50) was less than 4.52. The same measure for `O=C(c1cnc2c(c1)N(S(=O)(=O)c1ccc(C(F)(F)F)cc1)CCO2)N1CCCCC1` [Example 49, piperidin-1-yl(1-(4-(trifluoromethyl)phenylsulf-onyl)-2,3-dihydro-1H-pyrido[2,3-b][1,4]oxazin-7-yl)methanone]: less than 4.52; for `O=C(c1cnc2c(c1)N(S(=O)(=O)c1ccc(C(F)(F)F)cc1)CCO2)N1CCOCC1` [Example 50, morpholino(1-(4-(trifluoromethyl)phenylsulf-onyl)-2,3-dihydro-1H-pyrido[2,3-b][1,4]oxazin-7-yl)methanone]: less than 4.52; for `COCCNC(=O)c1cnc2c(c1)N(S(=O)(=O)c1ccc(C(F)(F)F)cc1)CCO2` [Example 51, N-(2-methoxyethyl)-1-(4-(trifluoromethyl)phenysulf-onyl)-2,3-dihydro-1H-pyrido[2,3-b][1,4]oxazine-7-carboxamide]: less than 4.52.

For the origin of these results see patent US7960377B2 (priority 2008, dated 2011).
